In US20060135458A1, “Antiviral oligonucleotides” (priority 2002, published 2006):
In the oligonucleotide strings, read from the 5' end, every base follows the letter of its sugar. An asterisk marks phosphorothioate; unmarked linkages are phosphodiester. Other units and linkages are bracketed, terminal groups are in braces. A string of capitals states the bases alone. d = 2'-deoxy (DNA)

Assays:
[1] = parameters: Acid stability, pH 5 / Acid stability, pH 7: key to the marks not given beside the values
Exonuclease I = Exonuclease I (Escherichia coli, UniProt P04995); parameters: key to the marks not given beside the values; conditions: after 4 h at 37° C.
S1 Nuclease = S1 Nuclease (Aspergillus oryzae, UniProt P24021); conditions: after 4 h at 37° C.
HSV-1 (strain KOS) = assay: HSV-1 plaque reduction assay (PRA) in VERO cells; type: cell-based; conditions: for IC50: VERO cells, HSV-1 strain KOS, linear regressions, read-out: IC50 (anti-HSV-1)
Description: The ability of PS-ONs to inhibit HSV-1 is measured in a plaque reduction assay (PRA). […] Upon reaching confluency, the media is changed to contain only 5% serum plus supplements as described above and cells are then exposed to HSV-1 (strain KOS, approximately 40-60 PFU total) in the presence of the test compound for 90 minutes. After viral exposure, the media is replaced with new “overlay” media containing 5% serum, 1% human immunoglobulins, supplements as described above and the test compound. Plaque counting is performed 3-4 days post infection following formalin fixation and cresyl violet staining of infected cultures.
(§1) Viral adsorbtion proceeds for 90 minutes, after which cells are washed and replaced with new “overlay” media containing 5% fetal calf serum and 1% human immunoglobins. Three to four days after adsorbtion, cells are fixed by formalin and plaques are counted following formalin fixation and cresyl violet staining.
Upon reaching confluency, the media is changed to contain only 5% serum plus supplements as described above and cells are then exposed to HSV-1 (strain KOS, approximately 40-60 PFU total) in the presence of the test compound for 90 minutes. After viral exposure, the media is replaced with new “overlay” media containing 5% serum, 1% human immunoglobulins, supplements as described above and the test compound. Plaque counting is performed 3-4 days post infection following formalin fixation and cresyl violet staining of infected cultures.

Phosphodiesterase II = conditions: after 4 h at 37° C.
HIV-1 (strain Mn) lysate = assay: Fluorescence polarization binding to HIV-1 lysate; conditions: FITC-labelled ON
RSV (strain A2) lysate = assay: Fluorescence polarization binding to RSV lysate; conditions: FITC-labelled ON
[2] = tested on: HSV-1 (strain MacIntyre) lysate; assay: Fluorescence polarization binding to HSV-1 lysate; conditions: FITC-labelled ON
HSV-2 (strain MS2) = assay: HSV-2 plaque reduction assay (PRA); type: cell-based
Description: The ability of PS-ONs to inhibit HSV-2 is measured by PRA. […] Upon reaching confluency, the media is changed to contain only 5% serum plus supplements as described above and cells are then exposed to HSV-2 (strain MS2, approximately 40-60 PFU total) in the presence of the test compound for 90 minutes. After viral exposure, the media is replaced with new “overlay” media containing 5% serum, 1% human immunoglobulins, supplements as described above and the test compound. Plaque counting is performed 3-4 days post infection following formalin fixation and cresyl violet staining of infected cultures.
as §1

Influenza A/HK/68 (H3N2) = tested on: Influenza A/HK/68 (H3N2); parameters: species or system Balb/c mice; conditions: mouse, in vivo, ip, 180 mg/kg

Sequence of Exonuclease I (P04995 whole entry): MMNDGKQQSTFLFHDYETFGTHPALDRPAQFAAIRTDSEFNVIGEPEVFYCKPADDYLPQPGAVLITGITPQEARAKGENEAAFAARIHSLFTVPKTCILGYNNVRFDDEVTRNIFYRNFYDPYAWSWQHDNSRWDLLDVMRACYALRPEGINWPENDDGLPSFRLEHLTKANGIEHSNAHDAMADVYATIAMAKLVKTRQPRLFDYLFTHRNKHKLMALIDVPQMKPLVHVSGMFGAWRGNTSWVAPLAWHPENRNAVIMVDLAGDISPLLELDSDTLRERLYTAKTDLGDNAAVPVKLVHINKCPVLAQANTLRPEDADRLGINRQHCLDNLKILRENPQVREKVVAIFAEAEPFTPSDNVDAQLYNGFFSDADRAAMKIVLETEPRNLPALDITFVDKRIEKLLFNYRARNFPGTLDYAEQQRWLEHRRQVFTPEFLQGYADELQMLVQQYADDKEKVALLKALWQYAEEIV
Sequence of S1 Nuclease (P24021 21-287): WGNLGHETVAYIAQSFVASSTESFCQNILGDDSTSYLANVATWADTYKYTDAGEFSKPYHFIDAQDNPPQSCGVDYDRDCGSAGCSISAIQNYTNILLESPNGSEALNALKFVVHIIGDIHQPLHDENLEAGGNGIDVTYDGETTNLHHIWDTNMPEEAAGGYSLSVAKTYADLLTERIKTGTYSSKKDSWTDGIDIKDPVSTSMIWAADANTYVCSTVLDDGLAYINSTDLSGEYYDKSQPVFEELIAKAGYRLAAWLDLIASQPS

| Compound | binding to HIV-1 lysate (fluorescence polarization, mP) (HIV-1 (strain Mn) lysate) | binding to RSV lysate (fluorescence polarization, mP) (RSV (strain A2) lysate) | binding to HSV-1 lysate (fluorescence polarization, mP) [2] | IC50 (HSV-1 (strain KOS)) | anti-HSV-2 activity (HSV-2 (strain MS2)) | also measured |
| --- | --- | --- | --- | --- | --- | --- |
| REP 2029: A40 (polyA) PS-ON (DNA dA*dA*dA*dA*dA*dA*dA*dA*dA*dA*dA*dA*dA*dA*dA*dA*dA*dA*dA*dA*dA*dA*dA*dA*dA*dA*dA*dA*dA*dA*dA*dA*dA*dA*dA*dA*dA*dA*dA*dA) |  |  |  |  |  | Acid stability, pH 1 ([1]; pH 1, 24 h at 37° C.): −; Acid stability, pH 2 ([1]; pH 2, 24 h at 37° C.): −; Acid stability, pH 2.5 ([1]; pH 2.5, 24 h at 37° C.): −; Acid stability, pH 3 ([1]; pH 3, 24 h at 37° C.): −; Acid stability, pH 4 ([1]; pH 4, 24 h at 37° C.): ++ (++ = less than 5-% degradation); Acid stability, pH 5 ([1]; pH 5, 24 h at 37° C.): +++; Acid stability, pH 7 ([1]; pH 7, 24 h at 37° C.): +++; Nuclease resistance, Exo 1 (Exonuclease I): ++++; Nuclease resistance, S1 (S1 Nuclease): −; relative anti-HSV-1 efficacy by sequence composition (HSV-1 (strain KOS); PS-ONs of equivalent size, HSV-1 PRA): the least active; Nuclease resistance, PII (Phosphodiesterase II): − |
| A20: 20-mer PS-ON, polyA, 3′ FITC labelled in the binding test | the weakest interactor of these by a significant margin | the weakest interactor of these by a significant margin | the weakest interactor of these by a significant margin |  |  |  |
| T20: 20-mer PS-ON, polyT | the weakest interactors | the weakest interactors | the weakest interactors |  |  |  |
| REP 1001: PS-ON directed against a replication origin in humans (343 ARS) (DNA dT*dT*dG*dA*dT*dA*dA*dA*dT*dA*dG*dT*dA*dC*dT*dA*dG*dG*dA*dC) |  |  |  | 2760 nM | showed anti-HSV-2 activity |  |
| TG10: 20-mer PS-ON, TG repeat | the strongest interaction | the strongest interaction | the strongest interaction |  |  |  |
| NC(=O)c1ncn([C@@H]2O[C@H](CO)[C@@H](O)[C@H]2O)n1 [Ribavirin] |  |  |  |  |  | Viral titer (log10/g lung) Mean (Influenza A/HK/68 (H3N2)): 3.3 log10/g lung |
| REP 3007: PS-ON directed against a plasmid (pBR322/pUC) replication origin (DNA dC*dT*dT*dG*dC*dG*dG*dT*dA*dT*dT*dC*dG*dG*dA*dA) |  |  |  | 5330 nM | showed anti-HSV-2 activity |  |
| REP 2001: PS-ON directed against the origin of replication in HSV (DNA dG*dA*dA*dG*dC*dG*dT*dT*dC*dG*dC*dA*dC*dT*dT*dC*dG*dT*dC*dC*dC*dA) |  |  |  | 770 nM | showed anti-HSV-2 activity |  |
| REP 2017: random sequence 20-mer PS-ON (DNA dA*dC*dA*dC*dC*dT*dC*dC*dG*dA*dA*dG*dA*dC*dG*dA*dT*dA*dA*dC) | capable of HSV-1 and HIV-1 interaction |  | capable of HSV-1 and HIV-1 interaction |  |  |  |
